Measurements as given in patent US5753631A, “Intercellular adhesion mediators” (Cytel Corporation, priority 1995, dated 1998).

Experiments:
P-Selectin = target: T1, P-Selectin (Homo sapiens, UniProt P16109); assay: Glycolipid liposome inhibition of HL-60 cell adhesion to activated platelets; assay type: cell-based; details: liposomes, FIG. 7
T1 construct: endogenous in cells
T1 sequence (P16109 42-830): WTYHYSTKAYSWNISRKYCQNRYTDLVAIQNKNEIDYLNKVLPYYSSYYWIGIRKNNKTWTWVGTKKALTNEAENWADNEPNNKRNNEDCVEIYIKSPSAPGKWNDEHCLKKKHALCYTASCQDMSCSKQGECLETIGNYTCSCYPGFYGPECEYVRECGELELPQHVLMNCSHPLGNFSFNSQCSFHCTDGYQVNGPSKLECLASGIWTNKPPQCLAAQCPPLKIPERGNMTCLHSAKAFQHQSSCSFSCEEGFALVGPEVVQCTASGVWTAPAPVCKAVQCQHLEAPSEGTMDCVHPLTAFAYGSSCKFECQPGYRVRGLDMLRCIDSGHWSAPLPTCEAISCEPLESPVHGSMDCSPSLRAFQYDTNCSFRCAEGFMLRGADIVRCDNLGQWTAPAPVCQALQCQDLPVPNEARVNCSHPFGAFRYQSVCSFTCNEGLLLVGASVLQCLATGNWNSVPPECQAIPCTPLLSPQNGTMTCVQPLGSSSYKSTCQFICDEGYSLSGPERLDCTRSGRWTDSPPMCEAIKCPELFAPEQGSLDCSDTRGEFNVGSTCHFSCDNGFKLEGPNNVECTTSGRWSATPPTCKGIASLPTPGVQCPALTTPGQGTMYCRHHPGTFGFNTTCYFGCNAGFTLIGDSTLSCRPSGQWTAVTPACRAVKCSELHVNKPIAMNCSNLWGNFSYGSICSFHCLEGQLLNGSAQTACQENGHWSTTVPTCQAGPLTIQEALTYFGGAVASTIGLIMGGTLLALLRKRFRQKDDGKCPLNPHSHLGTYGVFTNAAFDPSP
Procedure: The assays generally followed the protocol described in Larsen et al., Cell 63: 467-474 (1990), which is incorporated herein by reference.
Glycosphingolipids and liposomes were prepared as described in Example IV. The platelets were prepared as described in Example V, except that blocking of Fc receptors was not performed. HL60 cells were prepared as described above.
1. 20 μl of activated platelet preparation was placed in each of 28 1.5 ml microfuge tubes (14 duplicate samples).
2. 20 μl of the diluted liposomes at […], 5 μg or 2 μg, or 20 μl of the control buffers, were added to the appropriate tube of each duplicate.
3. The platelets were incubated with the liposome preparations for 20 min. at room temp.
4. Neutrophils or HL-60 cells at 2×10^6 cells/ml were each added to one set of liposome-treated platelets. 20 μl of cell suspension were added to each tube.
5. The tubes were mixed and allowed to stand at room temperature for 20 min. Then they were applied to a hemacytometer and the cells were scored as positive (2 or more platelets attached/cell) or negative (less than 2 platelets attached/cell).

E-Selectin = target: T2, E-Selectin (Homo sapiens, UniProt P16581); assay: Glycolipid liposome inhibition of HL-60 cell adhesion to IL-1β activated endothelial cells; assay type: cell-based; details: liposomes; for inhibition of adhesion of HL-60 cells to activated endothelial cells: 4° C. (FIG. 5); for reduction of HL-60 cell adhesion to activated endothelial cells: 37° C.
T2 construct: adhesion of HL-60 cells
T2 sequence (P16581 22-610): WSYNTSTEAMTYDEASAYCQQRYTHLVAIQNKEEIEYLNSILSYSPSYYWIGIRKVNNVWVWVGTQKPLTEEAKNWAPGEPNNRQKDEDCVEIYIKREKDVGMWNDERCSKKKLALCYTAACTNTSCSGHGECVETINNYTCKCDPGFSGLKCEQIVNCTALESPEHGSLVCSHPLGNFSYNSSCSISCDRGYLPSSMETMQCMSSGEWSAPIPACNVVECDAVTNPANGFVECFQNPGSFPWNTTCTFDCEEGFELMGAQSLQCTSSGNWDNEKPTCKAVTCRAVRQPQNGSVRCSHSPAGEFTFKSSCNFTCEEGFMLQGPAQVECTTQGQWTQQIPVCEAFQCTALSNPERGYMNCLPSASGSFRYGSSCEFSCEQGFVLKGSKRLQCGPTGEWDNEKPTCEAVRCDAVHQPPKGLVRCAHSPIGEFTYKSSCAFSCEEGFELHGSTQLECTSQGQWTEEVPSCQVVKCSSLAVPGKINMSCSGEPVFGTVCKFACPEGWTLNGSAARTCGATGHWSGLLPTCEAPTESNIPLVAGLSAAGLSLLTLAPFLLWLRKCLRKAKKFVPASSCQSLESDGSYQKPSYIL
Excerpt: This Example describes the preparation of liposomes which contain various biosynthetically produced glycosphingolipids on which the terminal carbohydrate units are either SLe^x, Le^x, or similar but not identical compounds. The ability of the liposomes which contain SLe^x or SLe^x mimetics to block the binding of SLe^x -expressing HL-60 cells and LEC11 cells to endothelial cells that have been stimulated to express E-Selectin by treatment with IL-1β is shown.
Materials: The glycosphingolipids used in this experiment are shown in Table I; they were obtained from the Biomembrane Institute, Seattle, Wash., and were either purified or biosynthetically produced and characterized by NMR and mass spectrometry, as generally described in Hakomori, S. I., et al., J. Biol. Chem., 259:4672 (1984), and Fukushi Y., et al., J. Biol. Chem. 259:10511 (1984), incorporated by reference herein. […] Nonsialylated diLex was similarly synthesized using nLc6 as substrate and the cell line NCI H-69. See Holmes et al., J. Biol. Chem. 260:7619 (1985), incorporated by reference herein. SPG and SH were purified from bovine red blood cells, and nLc6 was produced by chemical removal of the terminal sialosyl residue from SH.
Liposomes containing the glycosphingolipids were formed as follows: 100 μg of glycolipid was added to 300 μg phosphatidylcholine (Sigma, egg yolk) and 500 μg cholesterol (Sigma) in chloroform-methanol (2:1) and the whole solution evaporated to dryness by N2 in 15 ml screwcap tubes.
Passage 3 HUVEC, which had been grown to confluence on a gelatin coated 48 well assay plate (Costar) were used as the source of endothelial cells. The plates were prepared as previously described. Two sets of triplicate wells were left unstimulated as controls. Fourteen sets of triplicates were stimulated with IL-1β at 30 μg/ml in a 0.5 ml volume of EGM-UV. Cells were stimulated for exactly 4 hrs. HL-60 cells and LEC11 cells were cultured as described above.
1. One 48 well Costar cluster dish containing HUVEC grown to confluence on gelatin was removed from the incubator and the medium in each well was removed with a pasteur pipette and replaced either with 0.5 ml fresh EGM-UV medium or with the same medium containing 30 μg/ml IL-1β,and the plate then returned to the incubator for 4 hrs.
2. HL-60 cells and LEC11 cells were harvested and washed in CRPMI. A viable cell count was made using trypan blue. 6×10^6 cells of each cell type were radiolabeled as follows: 3×10^6 cells of each type were placed in each of two 10 ml test tubes and 300 μl of ^51 Cr (450 μCi) (New England Nuclear) was added to each tube. The tubes were allowed to incubate 1 hr. at 37° C. with gentle agitation.
3. Radiolabeled HL-60 and LEC11 cells were washed 3× in CRPMI and pooled into one tube. […]

[1] = test system: IgG immune complex-induced acute lung injury; assay: IgG immune complex-induced acute lung injury in the rat; assay type: in vivo, rat (male Long-Evans); details: conclusion in words
[2] = test system: IgA immune complex induced lung injury; assay: IgA immune complex-induced acute lung injury in the rat; assay type: in vivo, rat (male Long-Evans)
Procedure: Groups of rats were dosed with either vehicle, SLN-OH (100 μpg), or with SLX-OH (100 μg) […] post induction of inflammation. Each bar represents the mean of 6 animals and vertical lines represent the standard error of the mean.
Adult male (300 g) specific pathogen-free Long-Evans rats purchased from Charles River Labs (Portage, Mich.) were employed in the studies. For the induction of IgG immune complex pulmonary inflammation rabbit polyclonal IgG rich in antibody to bovine serum albumin (antiBSA) was purchased from Organon Teknika (Westchester, PA). Intraperitoneal ketamine (10 mg/Kg) was administered for anesthesia. 2.5 mg of anti-BSA in a volume of 300 μl was instilled intratracheally via a small intratracheal catheter during inspiration after surgical exposure of the trachea. Intravenous injection of 10 mg BSA was injected intravenously to generate immune complex formation. Trace amounts of ^125 I-BSA and ^51 Cr-RBC were administered with the BSA as markers for plasma and RBC extravasation respectively. Rats were sacrificed 4 h later and lung injury was assessed by the ratio of radiolabelled albumin in the lungs relative to the circulation (permeability), the ratio of RBC in the lungs relative to the circulation (hemorrhage) and the amount of myeloperoxidase activity in a lung homogenate (neutrophil accumulation). For induction of IgA immune complex induced lung injury 1.2 mg of a murine myeloma IgA protein specific for dinitrophenol (DNP) was instilled intratracheally and 3.3 mg DNP-bovine serum albumin injected intravenously. Lung injury was assessed in the same manner described for IgG-induced lung injury.
SLX-OH, Z, the non-fucosylated control oligosaccharide SLN, or an equivalent volume of PBS were injected intravenously in three equally divided doses at 2, 2.5, and 3 h following deposition of immune complexes. This schedule for injections was selected since it coincides with the time during which rapid expression of E-selectin occurs in the pulmonary vasculature.

[3] = test system: CVF-induced acute lung injury; assay: Cobra venom factor (CVF)-induced acute lung injury in the rat; assay type: in vivo; details: 200 μg prior to CVF (FIG. 16: 0.6 mg/Kg)
Procedure: Groups of rats were pretreated with either vehicle, SLN-OH (0.6 mg/Kg), or with SLX-OH (0.6 mg/Kg) 5 minutes prior to administration of either CVF or PBS. Each bar represents the mean of 6 animals and vertical lines represent the standard error of the mean.
Groups of rats were pretreated with either vehicle or Z at the indicated doses 5 minutes prior to administration of CVF or PBS. Each point represents the mean of 6 animals and vertical lines represent the standard error of the mean.
The intravenous injection of CVF produces intravascular complement activation which results in lung injury, defined as an increase in neutrophil accumulation within the lung, an increase in pulmonary vascular permeability and in lung hemorrhage. It is likely that intravascular complement activation results in the generation of a wide range of inflammatory mediators. Of particular relevance to the studies described here is generation of the split fifth complement component, C5a, which can stimulate the release of histamine from circulating basophils and tissue mast cells. […] The expression of selectins, including P-selectin, is a necessary first step in the process of leukocyte adherence to vascular endothelium.
Animals were dosed with different oligosaccharide preparations or phosphate buffered saline (PBS) five minutes before administration of cobra venom factor (20 units/Kg, i.v.). Included in this material was an aliquot of ^125 I-bovine serum albumin (0.5 μCi) and ^51 Cr labelled autologous red blood cells (0.5 μCi) for measuring plasma extravasation and hemorrhage respectively. Thirty minutes after administration of the cobra venom factor the animals were anesthetized with ketamine hydrochloride (10 mg/Kg) and exsanguinated via the posterior vena cava. The lung vasculature was then perfused through the right cardiac ventricle with 10 mL of PBS. The lungs were removed and the amount of radioactivity remaining within the tissue assessed with a gamma scintillation counter. Increased pulmonary vascular permeability was measured as the ratio of ^125 I in lung tissue compared with the amount present in 1 mL of venous blood obtained at the time of death. Lung hemorrhage was measured as the ratio of ^51 Cr in lung tissue compared with the amount present in 1 mL of venous blood obtained at the time of death. Neutrophil accumulation in lungs was determined by measuring the myeloperoxidase activity of lungs homogenized in PBS. Myeloperoxidase activity in lung supernatants was assayed by measuring the change in absorbance at 460 nm resulting from decomposition of H2 O2 in the presence of o-dianisidine

| Compound | inhibition of adhesion of HL-60 cells to activated platelets (P-Selectin) | inhibition of adhesion of HL-60 cells to activated endothelial cells (E-Selectin) | reduction of HL-60 cell adhesion to activated endothelial cells (E-Selectin) [%] | effect on IgG immune complex-induced neutrophil accumulation / lung injury [1] | protection assessed by vascular permeability and hemorrhage ([2]; FIG. 20, 100 μg) | effect on IgA immune complex-induced neutrophil accumulation and pathological sequelae ([2]; conclusion in words) | reduction of permeability value ([3]; P<0.001) [%] | reduction of hemorrhage ([3]; P<0.004) [%] | reduction of MPO content ([3]; P<0.006) [%] |
| --- | --- | --- | --- | --- | --- | --- | --- | --- | --- |
| III^3 V^3 Fuc2 VI^3 NeuAcnLc6 [S-diLe^x] | dramatically inhibited | dramatically inhibited | 70 | – | – | – | – | – | – |
| CC(=O)N[C@H]1[C@H]([C@H](O)[C@H](O)CO)O[C@@](O[C@H]2[C@@H](O)[C@@H](CO)O[C@@H](O[C@H]3[C@H](O[C@@H]4O[C@@H](C)[C@@H](O)[C@@H](O)[C@@H]4O)[C@@H](NC(C)=O)C(O)O[C@@H]3CO)[C@@H]2O)(C(=O)O)C[C@@H]1O (stereo partly drawn) [SLX-OH, NeuAcα2,3Gal,β1 4(Fucα1,3)GlcNAc-OH] | – | – | – | blocked IgG | did not afford any protection from IgA immune complex induced lung injury | not IgA | 43 | 41 | 35 |
| III^3 V^3 Fuc2 nLc6 [di-Le^x, reference compound] | minimal inhibition | minimal inhibition | 40 | – | – | – | – | – | – |
